Results published in article PMC12990037, “Discovery of Two Structurally Distinct Classes of Inhibitors Targeting the Nuclease MUS81 and Enhancing Efficacy of Chemotherapy in Cancer Cells” (Journal of Medicinal Chemistry, 2026).

Legend:
MUS81–EME1 = molecular target: T1, MUS81–EME1 (Homo sapiens, UniProt Q96NY9); experiment: Gel-based in vitro nuclease assay: cleavage of 3′flap DNA by purified MUS81–EME1; assay type: biochemical
T1 construct: The MUS81–EME1 full-length expression plasmid was obtained from Stephen C; West; made in house; host or cells: Escherichia coli
T1 sequence (Q96NY9 1-551): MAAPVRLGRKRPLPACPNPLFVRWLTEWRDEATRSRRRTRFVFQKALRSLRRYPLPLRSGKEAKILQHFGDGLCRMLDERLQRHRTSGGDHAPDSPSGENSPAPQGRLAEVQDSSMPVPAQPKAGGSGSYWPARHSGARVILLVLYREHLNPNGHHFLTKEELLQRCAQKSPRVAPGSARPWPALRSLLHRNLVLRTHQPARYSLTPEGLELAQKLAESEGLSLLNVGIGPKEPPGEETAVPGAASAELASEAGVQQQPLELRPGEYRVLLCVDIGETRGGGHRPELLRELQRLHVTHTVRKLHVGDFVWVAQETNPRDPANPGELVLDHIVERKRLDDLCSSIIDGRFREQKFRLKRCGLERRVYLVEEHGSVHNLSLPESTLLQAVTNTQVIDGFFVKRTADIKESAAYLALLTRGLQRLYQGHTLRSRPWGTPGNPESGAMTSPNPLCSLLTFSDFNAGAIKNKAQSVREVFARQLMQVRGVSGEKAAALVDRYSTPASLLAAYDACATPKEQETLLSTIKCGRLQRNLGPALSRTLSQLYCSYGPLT
T1 sequence (Q96AY2 1-570 partner): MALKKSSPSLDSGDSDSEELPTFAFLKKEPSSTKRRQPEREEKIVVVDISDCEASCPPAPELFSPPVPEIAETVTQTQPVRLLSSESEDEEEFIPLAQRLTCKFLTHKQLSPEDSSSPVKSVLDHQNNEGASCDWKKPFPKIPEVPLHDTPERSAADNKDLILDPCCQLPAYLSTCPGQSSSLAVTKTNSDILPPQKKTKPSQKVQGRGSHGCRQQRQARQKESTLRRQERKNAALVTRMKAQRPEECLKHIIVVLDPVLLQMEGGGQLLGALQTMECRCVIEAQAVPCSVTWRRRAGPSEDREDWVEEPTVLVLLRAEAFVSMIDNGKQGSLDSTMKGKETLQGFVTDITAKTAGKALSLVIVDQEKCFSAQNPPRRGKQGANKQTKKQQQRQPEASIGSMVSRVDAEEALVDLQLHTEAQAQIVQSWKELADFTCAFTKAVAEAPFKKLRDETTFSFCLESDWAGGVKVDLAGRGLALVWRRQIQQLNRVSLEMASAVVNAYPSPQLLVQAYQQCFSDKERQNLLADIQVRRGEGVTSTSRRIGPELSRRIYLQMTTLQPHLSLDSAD
Protocol: To identify the small-molecule inhibitors of MUS81, we used two complementary screening approaches. The first involved a structure-based virtual screening, where over 140,000 small molecules were docked into the active site of MUS81 using AutoDock Vina software. […] The cleavage by purified MUS81-EME1 was monitored by gel electrophoresis, and the compound activity was quantified by measuring the reduction in cleavage product intensity.
Nuclease assays were performed in reaction buffer containing 50 mM Tris pH 7.5, 10 mM MgCl2, 1 mM DTT, 85 mM KCl, and 20% glycerol. Purified MUS81–EME1 (1 nM) was preincubated in 9 μL reaction with indicated concentrations of inhibitors for 15 min at room temperature, followed by the addition of 3 nM of a 3′flap DNA substrate (listed in Supplementary Table 9) and a further incubation for 15 min at 37 °C. The final concentration of DMSO in the reactions was 2%. The reactions were stopped by the addition of 0.1% SDS and 500 μg/mL of proteinase K, followed by incubation for 5 min at 37 °C. […] The fluorescent DNA was visualized using a FLA-9000 (Fujifilm). Bands corresponding to cleaved substrates were selected for quantification using the MultiGauge 3.2 software. Final data represent integrated density of these bands with background subtraction. Fitting of the data with sigmoid curves was performed in OriginPro (OriginLab).

[1] = molecular target: T2, truncated MUS81 binding to immobilized DNA substrate (Homo sapiens, UniProt Q96NY9); experiment: Biolayer interferometry (BLI); settings: truncated MUS81 200 nM
T2 construct: made in house
T2 sequence (Q96NY9 246-551): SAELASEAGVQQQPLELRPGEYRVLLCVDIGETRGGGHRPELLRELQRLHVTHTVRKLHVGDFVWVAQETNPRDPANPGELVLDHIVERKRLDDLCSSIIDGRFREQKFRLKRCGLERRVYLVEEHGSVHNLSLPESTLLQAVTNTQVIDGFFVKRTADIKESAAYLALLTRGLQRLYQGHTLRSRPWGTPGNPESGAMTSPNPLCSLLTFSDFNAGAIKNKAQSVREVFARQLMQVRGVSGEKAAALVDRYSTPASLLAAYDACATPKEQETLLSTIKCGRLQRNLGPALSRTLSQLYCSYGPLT
T2 sequence (Q96AY2 178-570 partner limits assumed): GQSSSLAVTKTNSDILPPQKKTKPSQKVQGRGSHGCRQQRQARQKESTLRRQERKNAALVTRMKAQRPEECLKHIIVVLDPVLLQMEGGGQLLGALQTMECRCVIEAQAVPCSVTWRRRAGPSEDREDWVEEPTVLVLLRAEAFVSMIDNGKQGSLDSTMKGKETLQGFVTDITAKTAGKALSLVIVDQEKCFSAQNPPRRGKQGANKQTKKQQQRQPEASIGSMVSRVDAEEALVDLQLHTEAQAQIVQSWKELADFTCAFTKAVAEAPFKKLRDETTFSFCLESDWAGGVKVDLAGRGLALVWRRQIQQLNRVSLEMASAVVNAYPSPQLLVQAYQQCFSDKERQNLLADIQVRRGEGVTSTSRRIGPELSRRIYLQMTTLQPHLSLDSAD
Protocol: (A,B) Purified MUS81–EME1 (160 nM) was incubated with increasing concentrations of MU262, MU876, or their respective control analogues, followed by the addition of 3 nM fluorescently labeled 3′ flap DNA substrate. MgCl2 was omitted from the reaction buffer to prevent substrate cleavage. The reaction products were resolved on a native PAGE gel. The lower band represents a free DNA substrate, while the upper smear corresponds to the MUS81–DNA complex. n = 3. (C,D) A 3′ flap cleavage-resistant DNA substrate was immobilized on a streptavidin-coated (SAX) sensor and incubated with truncated MUS81 (200 nM) alone, or with MUS81 premixed with DMSO, MU876, MU262, or their respective control analogues. The real-time binding kinetics were measured as a change in optical thickness over time. Representative plots shown from two independent experiments. (E) Representative images of a DMSO-treated cell within 100 s after microirradiation. GFP-MUS81 U2OS cells were preincubated with DMSO or MU876 at 1 and 5 μM final concentration for 2 h. Localized DNA damage was induced using a 355 nm laser microirradiation at specific sites in individual nuclei. […] (F) The integrated intensity of a GFP-MUS81 signal accumulation ± SE from (E). n = 3.

[2] = molecular target: T3, MUS81–EME1 binding to 3′ flap DNA substrate (Homo sapiens, UniProt Q96NY9); experiment: Electrophoretic mobility shift assay (EMSA); settings: MUS81–EME1 160 nM, no MgCl2
T3 construct: The MUS81–EME1 full-length expression plasmid was obtained from Stephen C; West; made in house; host or cells: Escherichia coli
T3 sequence (Q96NY9 1-551): T1 sequence (Q96NY9 1-551)
T3 sequence (Q96AY2 1-570 partner): T1 sequence (Q96AY2 1-570 partner)
Protocol: Purified MUS81–EME1 (160 nM) was incubated in a modified assay buffer without MgCl2 (50 mM Tris–HCl pH 7.4, 150 mM NaCl, and 0.05% Tween-20) with 15 nM of a 3′flap DNA substrate (listed in Supplementary Table 5) in the absence or presence of selected inhibitors at RT for 10 min, followed by an incubation at 25 °C for 10 min. The reaction was stopped on ice and products were resolved using native PAGE (7.5% acrylamide gel in 0.5% TBE) at 4 °C for 50 min (6.5 V/cm). Gel images were captured using a FLA-9000 (Fujifilm) and Typhoon (Amersham) scanners and quantified with Multi Gauge V3.2 software (Fujifilm).

## CCc1nn2c(O)c(-c3nc4ccccc4[nH]3)nnc2c1-c1ccc(F)cc1 [Compound 18, 3-(1H-Benzo[d]imidazole-2-yl)-7-ethyl-8-(4-fluorophenyl)pyrazolo[5,1-c][1,2,4]triazin-4-ol]
MUS81–EME1; Table 1, in vitro
  IC50: < 1000 nM
MUS81–EME1; text and figures, MUS81–EME1 1 nM, 3 nM 3′ flap DNA
  IC50: 870 nM
[1]
  effect on MUS81–DNA binding (BLI): only negligible effect
[2]
  effect on MUS81–EME1 binding to 3′ flap DNA (EMSA): neither MU262 nor its inactive analogue MU1066 disrupted the MUS81–DNA interaction
